Data from patent publication US11492335B2, “Aryl or heteroaryl triazolone derivatives or salts thereof, or pharmaceutical compositions comprising the same” (YUHAN CORPORATION, priority 2018, dated 2022).
Where a name gives a salt, the structure may show the parent alone. Read-outs that look alike come from different tables or passages of the source.

Legend:
Format in all cases: biochemical
[1] = molecular target: T1, recombinant human MAO-B (monoamine oxidase-B) (Homo sapiens, UniProt P27338); experiment: Activity on recombinant human MAO-B, Amplex Red method, 1 mM benzylamine substrate; settings: 1 mM benzylamine substrate, read-out: Inhibitory Activity (IC50, nM) MAO-B
T1 construct: purchased Sigma-Aldrich
T1 sequence (P27338 1-520): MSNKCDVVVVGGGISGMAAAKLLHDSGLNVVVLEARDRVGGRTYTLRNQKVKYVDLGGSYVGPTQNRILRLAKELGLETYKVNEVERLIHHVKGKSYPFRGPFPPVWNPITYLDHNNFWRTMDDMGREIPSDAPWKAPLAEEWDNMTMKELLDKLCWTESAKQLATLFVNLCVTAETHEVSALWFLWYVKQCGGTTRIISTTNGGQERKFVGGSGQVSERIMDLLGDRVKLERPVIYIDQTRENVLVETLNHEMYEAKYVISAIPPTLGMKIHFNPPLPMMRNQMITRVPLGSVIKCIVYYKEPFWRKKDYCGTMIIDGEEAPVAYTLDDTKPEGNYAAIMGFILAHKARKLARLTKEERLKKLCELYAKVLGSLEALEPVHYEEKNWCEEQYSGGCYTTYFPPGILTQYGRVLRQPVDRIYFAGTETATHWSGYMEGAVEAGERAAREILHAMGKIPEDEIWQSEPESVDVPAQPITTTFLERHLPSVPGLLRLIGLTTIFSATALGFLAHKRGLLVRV
In short: (§1)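 Amplex Red/HRP coupled read-out of H2O2 with 0.5 mM tyramine for MAO-A or 1 mM benzylamine for MAO-B, following a 30-min compound–enzyme preincubation at 37° C. IC50 from percent inhibition of signal rate relative to uninhibited control.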

[2] = molecular target: T2, recombinant human DAO (diamine oxidase) (Homo sapiens, UniProt P19801); experiment: Activity on recombinant human DAO, Amplex Red method, 1 mM putrescine substrate; settings: recombinant human DAO, 1 mM putrescine substrate, read-out: Inhibitory Activity (IC50, nM) DAO
T2 construct: purchased R&D systems
T2 sequence (P19801 20-751): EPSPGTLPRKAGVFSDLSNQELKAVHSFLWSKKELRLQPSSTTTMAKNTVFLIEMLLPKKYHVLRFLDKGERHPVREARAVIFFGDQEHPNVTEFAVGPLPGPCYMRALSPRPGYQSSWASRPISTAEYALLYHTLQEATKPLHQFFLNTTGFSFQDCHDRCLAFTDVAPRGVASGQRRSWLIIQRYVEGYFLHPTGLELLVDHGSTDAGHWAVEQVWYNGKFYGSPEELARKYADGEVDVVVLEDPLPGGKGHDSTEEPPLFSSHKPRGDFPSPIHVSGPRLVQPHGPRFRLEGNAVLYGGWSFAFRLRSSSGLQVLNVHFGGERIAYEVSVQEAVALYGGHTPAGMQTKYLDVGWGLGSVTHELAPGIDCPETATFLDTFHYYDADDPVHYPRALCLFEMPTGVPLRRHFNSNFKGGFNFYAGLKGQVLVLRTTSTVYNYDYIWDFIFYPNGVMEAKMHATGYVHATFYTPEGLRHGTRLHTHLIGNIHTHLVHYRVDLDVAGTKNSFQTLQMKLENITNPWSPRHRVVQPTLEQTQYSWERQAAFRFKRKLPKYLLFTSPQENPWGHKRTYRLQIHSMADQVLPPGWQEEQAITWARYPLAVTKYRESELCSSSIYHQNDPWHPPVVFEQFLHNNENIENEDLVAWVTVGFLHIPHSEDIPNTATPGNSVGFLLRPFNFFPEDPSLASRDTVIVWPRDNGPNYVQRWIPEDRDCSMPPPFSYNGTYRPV
In short: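 Inhibition of recombinant human DAO (diamine oxidase, R&D systems) was assessed with the Amplex Red Hydrogen Peroxide Assay Kit. Hydrogen peroxide produced from 1 mM putrescine was detected through an HRP-coupled reaction that converts Amplex Red into fluorescent resorufin, read at 544 nm excitation and 590 nm emission. IC50 values came from four-parameter logistic fits in GraphPad Prism.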

recombinant human VAP-1 = molecular target: T3, recombinant human VAP-1 (Homo sapiens, UniProt Q16853); experiment: Activity on recombinant human VAP-1, Amplex Red HRP-coupled hydrogen peroxide assay, benzylamine substrate; settings: recombinant human VAP-1, benzylamine substrate; read-out: Inhibitory Activity (IC50, nM) human VAP-1
T3 construct: purchased R&D systems
T3 sequence (Q16853 1-763): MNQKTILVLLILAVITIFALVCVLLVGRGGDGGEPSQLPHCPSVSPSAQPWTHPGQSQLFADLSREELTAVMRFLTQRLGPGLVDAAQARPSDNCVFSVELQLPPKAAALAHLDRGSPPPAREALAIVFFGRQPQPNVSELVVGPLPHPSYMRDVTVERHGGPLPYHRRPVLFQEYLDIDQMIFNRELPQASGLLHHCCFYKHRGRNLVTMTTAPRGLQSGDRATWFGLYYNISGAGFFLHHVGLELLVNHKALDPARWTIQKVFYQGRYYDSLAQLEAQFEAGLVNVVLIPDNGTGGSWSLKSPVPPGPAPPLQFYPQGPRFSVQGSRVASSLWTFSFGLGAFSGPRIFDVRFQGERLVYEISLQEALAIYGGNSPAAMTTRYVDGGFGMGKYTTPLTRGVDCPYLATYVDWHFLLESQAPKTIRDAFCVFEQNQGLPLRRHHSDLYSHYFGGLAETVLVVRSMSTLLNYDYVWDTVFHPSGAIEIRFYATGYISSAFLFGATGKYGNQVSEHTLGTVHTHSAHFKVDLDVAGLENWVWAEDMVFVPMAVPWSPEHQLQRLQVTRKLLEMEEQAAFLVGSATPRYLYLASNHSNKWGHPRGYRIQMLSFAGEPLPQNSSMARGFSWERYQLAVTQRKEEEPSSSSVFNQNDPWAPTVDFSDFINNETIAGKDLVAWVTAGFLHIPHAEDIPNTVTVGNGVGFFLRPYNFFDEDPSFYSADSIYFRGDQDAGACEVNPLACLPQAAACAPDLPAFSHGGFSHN
In short: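 Dose-response IC50 determined from reduction in resorufin signal rate (544/590 nm, 1-2 h), with 30 min compound preincubation at 37 °C and 1 mM benzylamine as substrate.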

[3] = molecular target: T4, recombinant human MAO-A (monoamine oxidase-A) (Homo sapiens, UniProt P21397); experiment: Activity on recombinant human MAO-A, Amplex Red method, 0.5 mM tyramine substrate; settings: 0.5 mM tyramine substrate, read-out: Inhibitory Activity (IC50, nM) MAO-A
T4 construct: purchased Sigma-Aldrich
T4 sequence (P21397 1-527): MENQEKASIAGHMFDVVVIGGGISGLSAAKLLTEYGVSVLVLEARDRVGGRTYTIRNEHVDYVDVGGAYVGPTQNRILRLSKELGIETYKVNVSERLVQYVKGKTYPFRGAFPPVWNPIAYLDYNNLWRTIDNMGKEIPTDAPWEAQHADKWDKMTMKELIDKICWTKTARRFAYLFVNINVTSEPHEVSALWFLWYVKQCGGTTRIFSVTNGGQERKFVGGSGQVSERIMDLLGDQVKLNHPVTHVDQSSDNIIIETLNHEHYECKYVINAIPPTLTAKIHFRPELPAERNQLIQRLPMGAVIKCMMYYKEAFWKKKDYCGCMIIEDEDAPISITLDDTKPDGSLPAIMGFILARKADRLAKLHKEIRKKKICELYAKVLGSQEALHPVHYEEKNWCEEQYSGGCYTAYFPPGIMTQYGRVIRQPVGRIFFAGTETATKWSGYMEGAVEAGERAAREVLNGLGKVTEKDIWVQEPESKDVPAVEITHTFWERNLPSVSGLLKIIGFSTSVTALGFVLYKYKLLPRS
In short: as §1

| IC50 [1] | IC50 [2] | IC50 (recombinant human VAP-1) | IC50 [3] | IC50 ([2]; bound qualified by footnote * / **) | SMILES |
| --- | --- | --- | --- | --- | --- |
| 250 nM | 0.4 nM | 1.4 nM | > 100000 nM |  | Cn1nc(C(F)(F)F)cc1-c1cccc(-n2cnn(C/C(=C/F)CN)c2=O)n1 [Example 192, 2-[(2E)-2-(aminomethyl)-3-fluoroprop-2-en-1-yl]-4-{6-[1-methyl-3-(trifluoromethyl)-1H-pyrazol-5-yl]pyridin-2-yl}-2,4-dihydro-3H-1,2,4-triazol-3-one hydrochloride] |
| 1160 nM | 38 nM | 2.5 nM | > 100000 nM |  | NC/C(=C\F)Cn1ncn(-c2cccc(-c3ccc4c(c3)OCO4)n2)c1=O [Example 193, 2-[(2E)-2-(aminomethyl)-3-fluoroprop-2-en-1-yl]-4-[6-(1,3-benzodioxol-5-yl)pyridin-2-yl]-2,4-dihydro-3H-1,2,4-triazol-3-one] |
| 2710 nM | 2.9 nM | 1.2 nM | > 100000 nM |  | NC/C(=C\F)Cn1ncn(-c2cccc(-c3ccc4c(c3)OCCO4)n2)c1=O [Example 194, 2-[(2E)-2-(aminomethyl)-3-fluoroprop-2-en-1-yl]-4-[6-(2,3-dihydro-1,4-benzodioxin-6-yl)pyridin-2-yl]-2,4-dihydro-3H-1,2,4-triazol-3-one] |
| 620 nM | < 30 nM | 0.66 nM | > 100000 nM |  | NC/C(=C\F)Cn1ncn(-c2cccc(-c3ccc4nonc4c3)n2)c1=O [Example 195, 2-[(2E)-2-(aminomethyl)-3-fluoroprop-2-en-1-yl]-4-[6-(2,1,3-benzooxadiazol-5-yl)pyridin-2-yl]-2,4-dihydro-3H-1,2,4-triazol-3-one] |
| > 10000 nM | 11 nM | 1.1 nM | > 100000 nM |  | NC/C(=C\F)Cn1ncn(-c2cccc(-c3ccc4sc(N)nc4c3)n2)c1=O [Example 196, 4-[6-(2-amino-1,3-benzothiazol-5-yl)pyridin-2-yl]-2-[(2E)-2-(aminomethyl)-3-fluoroprop-2-en-1-yl]-2,4-dihydro-3H-1,2,4-triazol-3-one] |
| 250 nM | 2.6 nM | 0.08 nM | 81000 nM |  | Cc1cc(-c2cccc(-n3cnn(C/C(=C/F)CN)c3=O)n2)cc2c1NC(=O)CC2 [Example 197, 6-(6-{1-[(2E)-2-(aminomethyl)-3-fluoroprop-2-en-1-yl]-5-oxo-1,5-dihydro-4H-1,2,4-triazol-4-yl}pyridin-2-yl)-8-methyl-3,4-dihydroquinolin-2(1H)-one hydrochloride] |
| > 10000 nM | 130 nM | 2.9 nM | > 100000 nM |  | CN1C(=O)CCc2cc(-c3cccc(-n4cnn(C/C(=C/F)CN)c4=O)n3)ccc21 [Example 198, 6-[6-[1-[(E)-2-(aminomethyl)-3-fluoro-allyl]-5-oxo-1,2,4-triazol-4-yl]-2-pyridyl]-1-methyl-3,4-dihydroquinolin-2-one hydrochloride] |
| 1900 nM |  | 4.6 nM | > 100000 nM | < 100 nM | NC/C(=C\F)Cn1ncn(-c2cccc(-c3ccc4c(c3)NC(=O)CO4)n2)c1=O [Example 199, hydrochloride] |
| 1100 nM | 1.6 nM | 0.2 nM | > 100000 nM |  | NC/C(=C\F)Cn1ncn(-c2cccc(-c3ccc4c(c3)NC(=O)OC4)n2)c1=O [Example 200, 7-(6-{1-[(2E)-2-(aminomethyl)-3-fluoroprop-2-en-1-yl]-5-oxo-1,5-dihydro-4H-1,2,4-triazol-4-yl}pyridin-2-yl)-1,4-dihydro-2H-3,1-benzoxazin-2-one hydrochloride] |
| > 10000 nM | 17 nM | 1.3 nM | > 100000 nM |  | NC/C(=C\F)Cn1ncn(-c2cccc(-c3cccc4[nH]c(=O)ccc34)n2)c1=O [Example 201, 5-(6-{1-[(2E)-2-(aminomethyl)-3-fluoroprop-2-en-1-yl]-5-oxo-1,5-dihydro-4H-1,2,4-triazol-4-yl}pyridin-2-yl)quinolin-2(1H)-one hydrochloride] |
| 1300 nM | 240 nM | 1 nM | > 100000 nM |  | CN1CCOc2cc(-c3cccc(-n4cnn(C/C(=C/F)CN)c4=O)n3)ccc21 [Example 202, 2-[(2E)-2-(aminomethyl)-3-fluoroprop-2-en-1-yl]-4-[6-(4-methyl-3,4-dihydro-2H-1,4-benzoxazin-7-yl)pyridin-2-yl]-2,4-dihydro-3H-1,2,4-triazol-3-one hydrochloride] |
| 73 nM | 3 nM | 1.8 nM | 12000 nM |  | NC/C(=C\F)Cn1ncn(-c2cccc(-c3cccc4c3oc3ccccc34)n2)c1=O [Example 203, 2-[(2E)-2-(aminomethyl)-3-fluoroprop-2-en-1-yl]-4-[6-(dibenzo[b,d]furan-4-yl)pyridin-2-yl]-2,4-dihydro-3H-1,2,4-triazol-3-one hydrochloride] |
